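The compound was tested at five concentrations on cells cultured in 96-well plates, with a 48-hour exposure period. Definition used: TGI = concentration required for complete inhibition of growth.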

Common to all, as to assay: NCI-60 cell line screen, 48 h
Assay [1] relates to OVCAR-5 ovarian.
Assay [2] relates to T-47D breast.
The subject of assay [3] is RPMI-8226 leukemia.
The subject of assay [4] is SK-MEL-28 melanoma.
The subject of assay [5] is KM12 colon.
Assay [6] relates to OVCAR-8 ovarian.
For assay [7], the system named is SN12C renal.
The test system of assay [8] is RXF 393 renal.
Assay [9] concerns HCC-2998 colon.
Assay [10] deals with SF-539 CNS.
Assay [11] concerns UACC-62 melanoma.
Assay [12] has as its system MDA-N.
Assay [13] concerns PC-3 prostate.
Assay [14] has as its system U251 CNS.
Assay [15] deals with SK-MEL-2 melanoma.
Assay [16] deals with 786-0 renal.
Assay [17] relates to HCT-15 colon.
Assay [18] relates to IGROV1 ovarian.
The test system of assay [19] is M14 melanoma.
The subject of assay [20] is EKVX NSCLC.

For `Cc1ccc(S(=O)(=O)n2c3c(c4ccccc42)CCN2C(=O)C(S(=O)(=O)c4ccccc4)=CCC32)cc1` (stereo not drawn), the TGI came out at 0.581 µM in assay [1]; 0.375 µM in [2]; 0.749 µM in [3]; 0.353 µM in assay [4]; 0.645 µM in assay [5]; 0.328 µM in assay [6]. Moreover, the TGI in assay [7] amounted to 0.434 µM; in assay [8], 0.273 µM; in [9], 0.44 µM; in assay [10] it was 0.391 µM; in [11] it was 0.622 µM; in assay [12], 0.378 µM. The TGI in assay [13] was 0.562 µM; in assay [14] it was 0.404 µM; in assay [15], 0.475 µM; in assay [16], 0.346 µM; in [17] it was 0.421 µM; in assay [18], 0.36 µM.
`N#Cc1n[nH]n(C2CCCCC2)c1=O`: the TGI in assay [19], in assay [1], in assay [2], in assay [4], in assay [5] and in assay [20] was > 100 µM throughout. Moreover, the TGI in [6], in assay [7], in assay [8], in assay [9], in [10] and in [11] was > 100 µM throughout. Also, the TGI in [12], in [13], in [14], in [15], in [16] and in assay [17] was > 100 µM each time. Besides, the TGI in assay [18] is > 100 µM.
With `COc1cc(/C=N/n2c(Cc3ccc(Cl)cc3)n[nH]c2=O)cc(OC)c1OC`, the TGI in assay [19], in [1], in assay [2], in assay [4], in assay [5] and in assay [20] was > 100 µM throughout. In addition, the TGI in [6], in assay [7], in [8], in assay [9], in assay [10] and in [11] was > 100 µM in each case. In addition, the TGI in [12], in assay [13], in assay [14], in assay [15], in [16] and in [17] was > 100 µM each time.
As to `COC(=O)C1=C(C(=O)OC)C(Cc2ccccc2)(OO)OC1=O` (stereo not drawn), the TGI was > 100 µM in assay [19]; 54.2 µM in [1]; > 100 µM in assay [2]; > 100 µM in assay [4]; 39.1 µM in assay [5]; 37.3 µM in assay [20]. For the same compound, the TGI in assay [6] was > 100 µM; in assay [7], 98 µM; in assay [8], 32.8 µM; in assay [9], > 100 µM; in assay [10], 17.1 µM; in [11] it was 15.5 µM. Moreover, the TGI was > 100 µM in assay [12]; > 100 µM in assay [13]; 67.9 µM in [14]; 96.2 µM in assay [15]; > 100 µM in [16]; 16 µM in [17]. In assay [18], this compound yielded a TGI of 24.5 µM.
For the compound `S=c1nc(Cc2ccc(Cl)cc2)[nH][nH]1`, the TGI in assay [19] is > 100 µM; in assay [1], > 100 µM; in assay [2], 99.6 µM; in assay [4] it was > 100 µM; in assay [5] it was > 100 µM; in assay [20] it was > 100 µM. Besides, the TGI in assay [6], in assay [7], in [9], in assay [10], in [11] and in [12] was > 100 µM in each case. The TGI in [13], in assay [14], in [15], in assay [16], in assay [17] and in assay [18] was > 100 µM each time.
For the compound `c1ccc2c(c1)Nc1ccccc1[P+]21c2ccccc2Nc2ccccc21`, the TGI in assay [19] was 2.23 µM; in assay [1], 2.04 µM; in [2] it was 1.91 µM; in assay [4], 1.65 µM; in assay [20], 2.74 µM; in assay [6], 5.39 µM. The TGI in [7] was 0.631 µM; in assay [8], 0.891 µM; in assay [9], 2.44 µM; in [10], 0.817 µM; in assay [12], 1.11 µM; in assay [13], 0.609 µM. The TGI in [14] was determined as 1.4 µM; in assay [15] it was 0.482 µM; in [16], 2.87 µM; in assay [17], 24.5 µM.

Source of the values: PubChem BioAssay (NCI).
